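Method: 48-hour compound exposure of cells in 96-well plates, five concentrations, linear interpolation of endpoints. The concentration for 50% growth inhibition is given as GI50.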 Activity calls are given as the source filed them. Cut-off read from the data, not from the text of the source: active = GI50 up to about 1.1 µM and inactive = higher.
Legend:
Experiment in all cases: NCI anticancer screen, dose series, 48 h
786-0 = system: 786-0
A498 = system: A498
A549 = system: A549
ACHN = system: ACHN
BT-549 = system: BT-549
CAKI-1 = system: CAKI-1
COLO 205 = system: COLO 205
EKVX = system: EKVX
HCC 2998 = system: HCC 2998
HCT-116 = system: HCT-116
HCT-15 = system: HCT-15
HOP-92 = system: HOP-92
HT-29 = system: HT-29
Hs-578T = system: Hs-578T
IGROV-1 = system: IGROV-1
K562 = system: K562
KM12 = system: KM12
LOX IMVI = system: LOX IMVI
M14 = system: M14
MCF7 = system: MCF7
MDA-MB-231 = system: MDA-MB-231
MDA-MB-435 = system: MDA-MB-435
MDA-N = system: MDA-N
MOLT-4 = system: MOLT-4
Malme-3M = system: Malme-3M
NCI-H226 = system: NCI-H226
NCI-H23 = system: NCI-H23
NCI-H460 = system: NCI-H460
NCI/ADR-RES = system: NCI/ADR-RES
OVCAR-3 = system: OVCAR-3
OVCAR-4 = system: OVCAR-4
OVCAR-5 = system: OVCAR-5
OVCAR-8 = system: OVCAR-8
PC-3 = system: PC-3
RXF 393 = system: RXF 393
SF-268 = system: SF-268
SF-295 = system: SF-295
SF-539 = system: SF-539
SK-MEL-28 = system: SK-MEL-28
SK-MEL-2 = system: SK-MEL-2
SK-MEL-5 = system: SK-MEL-5
SK-OV-3 = system: SK-OV-3
SN12C = system: SN12C
SNB-19 = system: SNB-19
SNB-75 = system: SNB-75
SW-620 = system: SW-620
T47D = system: T47D
TK-10 = system: TK-10
U-251 = system: U-251
UACC-257 = system: UACC-257
UACC-62 = system: UACC-62
UO-31 = system: UO-31
CCRF-CEM = system: CCRF-CEM
DU-145 = system: DU-145
HL-60 = system: HL-60
HOP-62 = system: HOP-62
RPMI-8226 = system: RPMI-8226
SR = system: SR
NCI-H522 = system: NCI-H522

Compound: CC(C#N)Nc1ccc(Oc2ccc(C(C)(C)c3ccc(Oc4ccc(NC(C)C#N)cc4)cc3)cc2)cc1 (stereo not drawn)
- GI50 (786-0): > 100 µM (inactive)
- GI50 (A498): > 100 µM (inactive)
- GI50 (A549): > 100 µM (inactive)
- GI50 (ACHN): > 100 µM (inactive)
- GI50 (BT-549): > 100 µM (inactive)
- GI50 (CAKI-1): > 100 µM (inactive)
- GI50 (COLO 205): > 100 µM (inactive)
- GI50 (EKVX): > 100 µM (inactive)
- GI50 (HCC 2998): 22.3 µM (inactive)
- GI50 (HCT-116): 30.7 µM (inactive)
- GI50 (HCT-15): > 100 µM
- GI50 (HOP-92): 31.4 µM (inactive)
- GI50 (HT-29): > 100 µM (inactive)
- GI50 (Hs-578T): 18 µM (inactive)
- GI50 (IGROV-1): > 100 µM (inactive)
- GI50 (K562): > 100 µM (inactive)
- GI50 (KM12): > 100 µM (inactive)
- GI50 (LOX IMVI): > 100 µM (inactive)
- GI50 (M14): > 100 µM (inactive)
- GI50 (MCF7): 6.25 µM (inactive)
- GI50 (MDA-MB-231): > 100 µM (inactive)
- GI50 (MDA-MB-435): > 100 µM (inactive)
- GI50 (MDA-N): > 100 µM (inactive)
- GI50 (MOLT-4): 16.5 µM (inactive)
- GI50 (Malme-3M): > 100 µM (inactive)
- GI50 (NCI-H226): > 100 µM (inactive)
- GI50 (NCI-H23): 40.9 µM (inactive)
- GI50 (NCI-H460): > 100 µM (inactive)
- GI50 (NCI/ADR-RES): > 100 µM (inactive)
- GI50 (OVCAR-3): > 100 µM (inactive)
- GI50 (OVCAR-4): > 100 µM (inactive)
- GI50 (OVCAR-5): > 100 µM (inactive)
- GI50 (OVCAR-8): > 100 µM (inactive)
- GI50 (PC-3): 79.4 µM (inactive)
- GI50 (RXF 393): > 100 µM (inactive)
- GI50 (SF-268): 86.5 µM (inactive)
- GI50 (SF-295): > 100 µM (inactive)
- GI50 (SF-539): > 100 µM (inactive)
- GI50 (SK-MEL-28): > 100 µM (inactive)
- GI50 (SK-MEL-2): > 100 µM (inactive)
- GI50 (SK-MEL-5): 50.6 µM (inactive)
- GI50 (SK-OV-3): > 100 µM (inactive)
- GI50 (SN12C): > 100 µM (inactive)
- GI50 (SNB-19): > 100 µM (inactive)
- GI50 (SNB-75): 92.5 µM (inactive)
- GI50 (SW-620): > 100 µM (inactive)
- GI50 (T47D): 0.409 µM (active)
- GI50 (TK-10): > 100 µM (inactive)
- GI50 (U-251): > 100 µM (inactive)
- GI50 (UACC-257): 8.85 µM (inactive)
- GI50 (UACC-62): > 100 µM (inactive)
- GI50 (UO-31): 5.08 µM (inactive)

Compound: O=C(Cc1ccccc1)NNc1nc(NNC(=O)c2ccncc2)nc(Nc2ccccc2)n1
- GI50 (786-0): > 10 µM (inactive)
- GI50 (BT-549): > 10 µM (inactive)
- GI50 (CAKI-1): > 10 µM (inactive)
- GI50 (CCRF-CEM): > 10 µM (inactive)
- GI50 (COLO 205): > 10 µM (inactive)
- GI50 (DU-145): > 10 µM (inactive)
- GI50 (EKVX): > 10 µM (inactive)
- GI50 (HCC 2998): > 10 µM (inactive)
- GI50 (HCT-15): > 10 µM
- GI50 (HL-60): > 10 µM (inactive)
- GI50 (HOP-62): > 10 µM (inactive)
- GI50 (HOP-92): > 10 µM (inactive)
- GI50 (HT-29): > 10 µM (inactive)
- GI50 (Hs-578T): > 10 µM (inactive)
- GI50 (IGROV-1): > 10 µM (inactive)
- GI50 (K562): > 10 µM (inactive)
- GI50 (KM12): > 10 µM (inactive)
- GI50 (LOX IMVI): > 10 µM (inactive)
- GI50 (M14): > 10 µM (inactive)
- GI50 (MCF7): > 10 µM (inactive)
- GI50 (MDA-MB-231): > 10 µM (inactive)
- GI50 (MDA-N): > 10 µM (inactive)
- GI50 (MOLT-4): > 10 µM (inactive)
- GI50 (Malme-3M): > 10 µM (inactive)
- GI50 (NCI-H460): > 10 µM (inactive)
- GI50 (NCI/ADR-RES): > 10 µM (inactive)
- GI50 (OVCAR-4): > 10 µM (inactive)
- GI50 (OVCAR-8): > 10 µM (inactive)
- GI50 (RPMI-8226): > 10 µM (inactive)
- GI50 (SF-268): > 10 µM (inactive)
- GI50 (SF-539): > 10 µM (inactive)
- GI50 (SK-MEL-28): > 10 µM (inactive)
- GI50 (SK-OV-3): > 10 µM (inactive)
- GI50 (SN12C): > 10 µM (inactive)
- GI50 (SNB-75): > 10 µM (inactive)
- GI50 (SR): > 10 µM (inactive)
- GI50 (T47D): > 10 µM (inactive)
- GI50 (TK-10): > 10 µM (inactive)
- GI50 (U-251): > 10 µM (inactive)
- GI50 (UACC-257): > 10 µM (inactive)
- GI50 (UACC-62): > 10 µM (inactive)
- GI50 (UO-31): 1.12 µM (active)

Compound: CN1/C(=C/C=C/C=C/C=C2C(=O)c3ccccc3C2=O)C(C)(C)c2ccccc21
- GI50 (786-0): > 100 µM (inactive)
- GI50 (A498): 23.8 µM (inactive)
- GI50 (A549): 7 µM (inactive)
- GI50 (ACHN): 25.8 µM (inactive)
- GI50 (BT-549): 24 µM (inactive)
- GI50 (CAKI-1): 44 µM (inactive)
- GI50 (CCRF-CEM): > 100 µM (inactive)
- GI50 (COLO 205): 26.6 µM (inactive)
- GI50 (DU-145): 43.4 µM (inactive)
- GI50 (EKVX): 30.8 µM (inactive)
- GI50 (HCT-116): > 100 µM (inactive)
- GI50 (HCT-15): 40.2 µM
- GI50 (HL-60): 36.6 µM (inactive)
- GI50 (HOP-62): > 100 µM (inactive)
- GI50 (HOP-92): 15.7 µM (inactive)
- GI50 (HT-29): > 100 µM (inactive)
- GI50 (Hs-578T): 29.9 µM (inactive)
- GI50 (IGROV-1): 39.6 µM (inactive)
- GI50 (K562): 13.3 µM (inactive)
- GI50 (KM12): 76.9 µM (inactive)
- GI50 (LOX IMVI): 40.3 µM (inactive)
- GI50 (M14): 37.5 µM (inactive)
- GI50 (MCF7): 31.3 µM (inactive)
- GI50 (MDA-MB-231): 10.3 µM (inactive)
- GI50 (MDA-MB-435): 54.5 µM (inactive)
- GI50 (MDA-N): 35.6 µM (inactive)
- GI50 (Malme-3M): 29.4 µM (inactive)
- GI50 (NCI-H226): 51.9 µM (inactive)
- GI50 (NCI-H23): 41 µM (inactive)
- GI50 (NCI-H460): 53.5 µM (inactive)
- GI50 (NCI-H522): 28.6 µM (inactive)
- GI50 (NCI/ADR-RES): 76.2 µM (inactive)
- GI50 (OVCAR-3): 20 µM (inactive)
- GI50 (OVCAR-4): 75.3 µM (inactive)
- GI50 (OVCAR-5): 33 µM (inactive)
- GI50 (OVCAR-8): 44 µM (inactive)
- GI50 (RPMI-8226): 6.55 µM (inactive)
- GI50 (RXF 393): 24.2 µM (inactive)
- GI50 (SF-268): 43.3 µM (inactive)
- GI50 (SF-295): 35.5 µM (inactive)
- GI50 (SF-539): 26.1 µM (inactive)
- GI50 (SK-MEL-2): 20.3 µM (inactive)
- GI50 (SK-MEL-5): 18.5 µM (inactive)
- GI50 (SK-OV-3): 39.4 µM (inactive)
- GI50 (SN12C): > 100 µM (inactive)
- GI50 (SNB-19): > 100 µM (inactive)
- GI50 (SNB-75): 48.6 µM (inactive)
- GI50 (SR): > 100 µM (inactive)
- GI50 (SW-620): > 100 µM (inactive)
- GI50 (T47D): 6.76 µM (inactive)
- GI50 (TK-10): > 100 µM (inactive)
- GI50 (UACC-257): 17.5 µM (inactive)
- GI50 (UACC-62): 17.7 µM (inactive)
- GI50 (UO-31): 37.2 µM (inactive)

— ChEMBL document CHEMBL1201862, “PubChem BioAssay data set” (2004)
